# In patent US20170118998A1, “PESTICIDAL COMPOSITIONS AND METHODS FOR USING SAME” (priority 1998, published 2017):
# Experiments:
# Type in all cases: in vivo
# American cockroaches [1] = assay: Test chemical applied directly to thorax of insect using Pasteur Pipette (Table 12); conditions: 1 drop applied directly to thorax; one value per insect
# American cockroaches [2] = assay: Direct spray toxicity of rosemary oil, wintergreen oil and their blend (Example 1); conditions: sprayed with approximately 3.7 grams; one value per insect
# Method: Studies were conducted to evaluate the individual toxicity, in terms of speed of action and mortality, of rosemary oil and wintergreen oil against American cockroaches, and then a blend of these two oils to determine if similar toxic effects could be obtained using a proprietary blend that was less expensive to produce and easier to employ in different end-use formulations. Methyl salicylate was used as wintergreen oil. American cockroaches were confined under a screened cap and then sprayed with approximately 3.7 grams of each test chemical using a trigger sprayer. Immediately after spraying, the insects were released into a large plastic container and observed for signs of toxicity. Three American cockroaches were used in each experiment. The times for immobilization (IM), knockdown (KD), and mortality were recorded for each test insect. An untreated control was provided.
# [3] = system: Melon Aphids Aphis gossypii; assay: Melon Aphids on squash (Table 11); conditions: 1 qt/acre, applied three times at one week interval
# Method: A formulation (DR-A-034) consisting of 5% w/w rosemary oil, 22.5% w/w wintergreen oil, 22.5% w/w mineral oil, 0.5% w/w lecithin (emulsifier), and 49.5% w/w water was prepared and labeled Hexacide™. Hexacide™ was applied in dilute form at different rates per acre to the pests itemized below in various greenhouse and field studies. In all of these studies, positive controls consisting of conventional pesticides were utilized for comparative efficacy.
# Randomized complete block design was used. Five replicates per treatment were performed. 100 gallons spray volume per acre (GPA). Latron CS-7 at 4 ml/gallon was added to all treatments. All foliar applied pesticidal compositions applied, except Admire and Platinum (soil insecticides). HEXACIDE™ Azadiractin and Pyganic applied three times at one week interval. Other products applied once.
Compound,KD (knockdown time) (American cockroaches [1]),Mortality (time) (American cockroaches [1]) [m],IM (time for immobilization) (American cockroaches [2]) [s],Mortality (time) (American cockroaches [2]) [min],Mean % Aphids per Leaf ([3]; 6 DAT) [c %],Mean % Aphids per Leaf ([3]; 12 DAT) [c %],Mean % Aphids per Leaf ([3]; Pretreatment) [b %]
"COC(=O)c1ccccc1O [100% Methyl Salicylate, Methyl salicylate]",no KD,>5,45,>2,–,–,–
C/C=C(\C)C(=O)O[C@H]1C[C@@H](OC(C)=O)[C@@]2(C(=O)OC)CO[C@H]3[C@@H](O)[C@@](C)([C@]45O[C@@]4(C)[C@H]4C[C@@H]5O[C@@H]5OC=C[C@@]54O)[C@H]4[C@]1(CO[C@]4(O)C(=O)OC)[C@@H]32 [Azadiractin],–,–,–,–,5.4,15.1,3.9
